The source of these data is paper PMC6268933 (Molecules, 2012).

Read-outs that look alike come from different tables or passages of the source.

A short description of series [1]: DPPH radical scavenging activity (RSA) assay. Format: biochemical. Conditions: for IC50: 15 min in the dark at room temperature, 515 nm, mean ± SD (n = 3), read-out: DPPH radical scavenging activities (IC50); for average fold higher DPPH scavenging activity compared to compounds 1 to 6: positive controls vs compounds 1 to 6. Here is the method:
The antioxidant activity of all six compounds was determined by the DPPH radical scavenging method according to the previous procedure with modification. Each compound was diluted two-fold in a series of five starting from 5.00 mg/mL. The solution of DPPH in methanol (6 × 10^−5 M) was prepared daily before UV measurements. A 3 mL aliquot of this solution was mixed with 77 μL of the compound solution in a 1-cm path length microcuvette. The mixture was shaken vigorously. The mixtures were then kept in the dark for 15 min at room temperature and the decrease in absorption was measured immediately in a UV-Vis spectrophotometer at 515 nm. The blank solution containing the same amount of methanol and DPPH solution was prepared and its absorption was measured daily. The experiment was carried out in triplicate. AscA and BHT were used as positive controls. The RSA of samples, expressed as percentage inhibition of DPPH, was calculated according to the formula: Inhibition percentage (Ip) = [(AB − AA)/AB] × 100, where AB and AA are the absorbance values—checked after 15 min—of the blank sample and of the tested sample solutions, respectively.

A short description of series [2]: β-carotene-linoleic acid (BCLA) assay. Format: biochemical. Conditions: bleaching of β-carotene, 450 nm, up to 120 min; mean ± SD (n = 3); read-out: BCLA method (IC50). Here is the method:
This test was carried out according to the reported method of literature with modification. Approximately 4 mL of a solution of β-carotene in chloroform (1 mg/mL) were pipetted into a flask containing 40 mg of linoleic acid and 400 mg of Tween-40. The chloroform was removed using a rotary evaporator at 40 °C for 5 min, and to the residue, 100 mL of distilled water were added, slowly with vigorous agitation, to form an emulsion. A 96-well micro-titer plate was added with 50 μL of the Part 2.4.1 solution of the test compound and 200 μL of the emulsion, and the absorbance was measured at 450 nm, immediately, against a blank consisting of the emulsion without β-carotene. The plate was allowed to stand at room temperature (20–23 °C), and the absorbance measurements were conducted again at 30 min intervals up to 120 min. All tests were carried out in triplicate. Stable antioxidants of AscA and BHT were used as positive controls. The antioxidant activity (AA) of the test samples was evaluated in terms of bleaching of β-carotene using the formula; AA = [1 − (A0 − At)/(A0' − At')] × 100, where A0 and A0' are the absorbance values measured at zero time of the sample and the blank, respectively, and At and At' are the absorbance measured in the test sample and the blank, respectively, at times up to 120 min.

Series [3] in a line: Cytotoxicity on Vero cells by MTT assay. Type of series: cell-based. The following applies: African green monkey (Cercopitheus aethiops). Here is the method: The isolated compounds were tested for in-vitro cytotoxicity using Vero cells by 3-(4,5-dimethylthiazol-2-yl)-2,5-diphenyltetrazolium bromide (MTT) assay. The Vero cell line was initiated from kidney of a normal adult African green monkey, Cercopitheus aethiops, obtained from Virology Laboratory, School of Biosciences and Biotechnology, Faculty of Science and Technology, UKM. Vero cells were maintained in DMEM, supplemented with 10% FBS and cultured at 37 °C in a humidified 5% CO2 incubator. The concentration of stock compound solution was 1.0 mg/mL prepared by dissolving 1 mg compound in 50 μL methanol and 950 μL 5% FBS-DMEM. Sonicator was used to emulsify the compounds for 40 min before the two-fold dilutions made in 5% FBS-DMEM to produce a compound solution at concentrations of 0.5, 0.25, 0125 and 0.0625 mg/mL. Briefly, a total of […] of cell suspension with different concentrations were added to each well in the 96-well micro-titer plates. As a positive control, each well from first to third wells was added with cells of 2.5 × 10^5, 1.25 × 10^5 and 0.625 × 10^5 cells/mL. For the negative control (100% cell death, LC100), […] of DMEM without cells were added to the twelfth well. Cells of 2.5 × 10^5 cells/mL were added into the fourth to eleventh wells. The plates were incubated for 48 h at 37 °C with 5% CO2 until a monolayer is formed. […] After the incubation period, MTT (20 μL, 5 mg/mL) was added into each well and the cells incubated for 2 to 4 h, until a purple precipitate was clearly visible under a microscope, the medium together with MTT (190 μL) was aspirated off from the wells, DMSO (100 μL) was added and the plate shaken for 5 min. The absorbance for each well was measured at 540 nm in a micro-titer plate reader and percentage of cell viability (CV) was calculated manually using the formula: CV = [(Abssample − Absnegative control)/(Abscell − Absnegative control)] × 100.
On the technique in general: Tetrazolium dyes change colour on reduction, which living cells bring about.

For series [4] the following is noted: cited from earlier work.
Setting [5] is: Vero cells, MTT, 24 h incubation, read-out: Cytotoxic activities on Vero cell lines (LC50).
The mark [6] stands for this setting: from V. chunganensis, read-out: DPPH RSA.
Setting [7] is: from Parthenocissus laetevirens, read-out: DPPH RSA antioxidant activities.
[8] abbreviates: from V. wilsonae, read-out: antioxidant activities towards DPPH, IC50.

Take `Oc1ccc([C@@H]2c3c(O)cc(O)cc3[C@@H]3c4c(cc(O)cc4[C@@H]2O)O[C@H]3c2ccc(O)cc2)cc1` (relative stereo) [Compound 1, acuminatol]: the results for the IC50 in series [1] and in series [2] were 10060 ± 50 µM and 180 ± 10 µM, respectively. Moreover, the CC50 at 24 h in series [3] (setting [5]) amounted to 400 µM.

Turning to `O=C1O[C@H]([C@@H](O)CO)C(O)=C1O` [AscA, ascorbic acid, reference compound], in series [1], the IC50 is 680 µM and the “average fold higher DPPH scavenging activity compared to compounds 1 to 6” value is listed as 6 fold. Besides, the IC50 in series [2] came to 25200 ± 1740 µM.

As to `Cc1cc(C(C)(C)C)c(O)c(C(C)(C)C)c1` [BHT, butylated hydroxytoluene, reference compound], in series [1], the IC50 turned out to be 950 ± 50 µM and the “average fold higher DPPH scavenging activity compared to compounds 1 to 6” value was 4 fold. Further, the IC50 in series [2] amounted to 90 µM. `O=C1O[C@@H]2[C@H](O)COC23O[C@@H](c2ccc(O)cc2)[C@H](c2cc(O)cc4c2[C@@H](c2cc(O)cc(O)c2)[C@H](c2ccc(O)cc2)O4)[C@@]13O` (stereo partly shown) [Compound 2, laevifonol]: the figures for the IC50 in series [1] and in series [2] were 4210 ± 230 µM and 220 ± 20 µM, respectively. Moreover, the CC50 at 24 h in series [3] (setting [5]) turned out to be 597 µM. Regarding `Oc1ccc([C@H]2Oc3cc(O)cc4c3[C@@H]2c2cc(O)cc3c2[C@@H](c2cc(O)cc5c2[C@@H]4[C@H](c2ccc(O)cc2)O5)[C@H](c2ccc(O)cc2)O3)cc1` [Compound 3, (+)-α-viniferin], the IC50 in series [1] was 6290 ± 50 µM; in series [2], 180 µM. Also, the CC50 at 24 h in series [3] (setting [5]) was found to be 208 µM. The matching figures for `O=C1C=CC23C(C1)Oc1cc(O)cc4c1C2C(c1cc(O)cc2c1C4C(c1ccc(O)cc1)O2)C(c1cc(O)cc2c1C(c1cc(O)cc(O)c1)C(c1ccc(O)cc1)O2)C3c1ccc(O)cc1` (stereo not shown) [Compound 4, shoreaketone]: 1540 ± 100 µM, 110 µM and 830 µM.

With `Oc1ccc([C@@H]2c3c(O)cc(O)cc3[C@@H]3c4c(cc(O)c5c4[C@@H]2[C@H](c2ccc(O)cc2)[C@H]5c2cc(O)cc4c2[C@@H](c2cc(O)cc(O)c2)[C@H](c2ccc(O)cc2)O4)O[C@H]3c2ccc(O)cc2)cc1` [Compound 5, vaticanol B], the IC50 in series [1] amounted to 840 ± 20 µM; in series [2], 100 ± 10 µM. In addition, in series [3] (setting [5]), the CC50 at 24 h was 759 µM. As to `Oc1ccc([C@H]2c3c(O)cc(O)cc3[C@H]3c4c(cc(O)cc4[C@@H]2[C@H]2c4cc(O)cc5c4[C@H](c4cc(O)cc(O)c4[C@@H]2c2ccc(O)cc2)[C@@H](c2ccc(O)cc2)O5)O[C@@H]3c2ccc(O)cc2)cc1` [Compound 6, (−)-hopeaphenol], the figures for the IC50 in series [1] and in series [2] were 2780 ± 160 µM and 100 ± 10 µM, respectively. This compound also had a CC50 at 24 h in series [3] of 161 µM. For `Oc1ccc(/C=C/c2c3c(cc4c2[C@H](c2cc(O)c(Cc5c(O)cc(O)cc5[C@@H]5c6c(O)cc7c8c6[C@H]([C@@H](c6ccc(O)cc6)c6c(O)cc(O)cc6[C@@H]8[C@@H](c6ccc(O)cc6)O7)[C@H]5c5ccc(O)cc5)c(O)c2)[C@@H](c2ccc(O)cc2)O4)O[C@H](c2ccc(O)cc2)[C@H]3c2cc(O)cc(O)c2)cc1` [chunganenol], the IC50 in series [4] (setting [6]) was 37.3 µM.

For the compound `Oc1ccc([C@H]2c3c(O)cc(O)c4c3c(cc3ccc(O)cc34)[C@@H]2c2cc(O)cc(O)c2)cc1` [laetevirenol A], in series [4] (setting [7]), the IC50 was 38.4 µM. Turning to `Oc1cc(O)cc(/C=C/c2ccc(O)c(O)c2)c1` [piceatanol], the IC50 in series [4] (from Cyperus longus, read-out: DPPH RSA IC50) was 11 µM. For the compound `C[C@H](O)/C=C/[C@@]1(O)[C@H](C)[C@H](O)[C@@H](O)CC1(C)C` [wilsonol A], the IC50 in series [4] (setting [8]) is 104 µM. Regarding `C[C@@H]1[C@H](O)[C@@H](O)CC(C)(C)[C@@]1(O)/C=C/[C@@H](C)O` [wilsonol B], the IC50 in series [4] (setting [8]) is 195 µM. As for `CC(=O)/C=C/[C@@]1(O)[C@H](C)[C@H](O)[C@@H](O)CC1(C)C` [wilsonol C], the IC50 in series [4] (setting [8]) is 182 µM. Regarding (+)-amurensin G, the IC50 in series [4] (setting [6]) is 138 µM. With (+)-gnetin H, in series [4] (setting [6]), the IC50 was 251 µM. Consider diviniferin B, for which, in series [4] (setting [8]), the IC50 was 175 µM. Turning to laetevirenol B, the IC50 in series [4] (setting [7]) was 37.3 µM. Turning to laetevirenol C, the IC50 in series [4] (setting [7]) was 111 µM. As to laetevirenol D, the IC50 in series [4] (setting [7]) was 128 µM. Turning to laetevirenol E, in series [4] (setting [7]), the IC50 was 158 µM.
